We go through 18 compounds from US12037344B2, “NLRP3 modulators” (INNATE TUMOR IMMUNITY, INC., priority 2018, dated 2024).

Read-outs that look alike come from different tables or passages of the source.

Broadly, the EC50 is the concentration at which the effect is half-maximal.

For one test, the system named is THP-1 cells. As to the kind of experiment: Measurement of IL-1β production, hTRF protocol (second alternative procedure), THP-1 cells. Type of test: cell-based, human. To be noted: Homo sapiens. Summed up:
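Compounds, dilution series starting at a final 10 μM, were incubated 2 hours at 37° C with PMA-differentiated THP-1 cells (50 ng/ml overnight; 50,000 cells/well, 2% FBS RPMI). Released IL-1β quantified in supernatant by hTRF kit with 1:40 antibody dilution, 4° C overnight, 665/615 nm ratio.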

The next test addresses T1, TLR8 (Homo sapiens, UniProt Q9NR97).
T1 construct: human HEK-Blue cells co-expressing a TLR7 or TLR8 gene
T1 sequence (Q9NR97 27-1041): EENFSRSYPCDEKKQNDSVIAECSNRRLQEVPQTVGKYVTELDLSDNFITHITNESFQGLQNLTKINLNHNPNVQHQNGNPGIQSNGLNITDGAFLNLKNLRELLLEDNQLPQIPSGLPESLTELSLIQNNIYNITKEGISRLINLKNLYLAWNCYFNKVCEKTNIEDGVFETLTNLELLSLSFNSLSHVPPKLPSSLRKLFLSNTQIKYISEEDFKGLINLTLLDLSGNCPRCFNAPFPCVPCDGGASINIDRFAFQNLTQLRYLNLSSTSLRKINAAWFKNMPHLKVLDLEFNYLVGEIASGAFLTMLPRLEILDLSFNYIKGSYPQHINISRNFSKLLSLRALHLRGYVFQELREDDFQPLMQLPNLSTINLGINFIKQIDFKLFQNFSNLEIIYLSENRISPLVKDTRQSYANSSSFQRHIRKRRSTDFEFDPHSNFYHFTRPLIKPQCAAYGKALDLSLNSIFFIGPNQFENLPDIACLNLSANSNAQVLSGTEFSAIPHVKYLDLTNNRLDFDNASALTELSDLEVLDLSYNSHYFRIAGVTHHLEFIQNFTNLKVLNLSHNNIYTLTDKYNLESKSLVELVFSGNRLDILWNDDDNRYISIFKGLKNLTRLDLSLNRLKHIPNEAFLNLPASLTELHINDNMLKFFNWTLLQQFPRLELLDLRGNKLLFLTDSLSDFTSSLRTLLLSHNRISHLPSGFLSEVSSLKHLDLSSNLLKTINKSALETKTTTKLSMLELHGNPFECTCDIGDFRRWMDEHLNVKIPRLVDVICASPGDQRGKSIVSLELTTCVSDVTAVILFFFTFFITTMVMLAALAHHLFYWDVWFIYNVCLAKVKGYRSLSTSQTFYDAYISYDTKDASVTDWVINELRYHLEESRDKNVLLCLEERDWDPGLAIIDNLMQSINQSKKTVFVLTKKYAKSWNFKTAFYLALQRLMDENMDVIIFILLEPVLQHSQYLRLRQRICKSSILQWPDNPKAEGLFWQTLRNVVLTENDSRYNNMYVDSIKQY
As to the kind of experiment: In vitro human TLR8 binding reporter assay (HEK-Blue, NF-kB/AP1-inducible SEAP). Type of test: cell-based. As to conditions: read-out: TLR8 Agonist EC50. Summed up:
(§1)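 EC50s come from NF-kB/AP1-driven SEAP secretion in HEK-Blue cells expressing TLR7 or TLR8, measured with Quanti-Blue after an 18 h compound incubation. Maximal response is defined by a 50 μM reference standard.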

For the next test, the target named is T2, TLR7 (Homo sapiens, UniProt Q9NYK1).
T2 construct: human HEK-Blue cells co-expressing a TLR7 or TLR8 gene
T2 sequence (Q9NYK1 27-1049): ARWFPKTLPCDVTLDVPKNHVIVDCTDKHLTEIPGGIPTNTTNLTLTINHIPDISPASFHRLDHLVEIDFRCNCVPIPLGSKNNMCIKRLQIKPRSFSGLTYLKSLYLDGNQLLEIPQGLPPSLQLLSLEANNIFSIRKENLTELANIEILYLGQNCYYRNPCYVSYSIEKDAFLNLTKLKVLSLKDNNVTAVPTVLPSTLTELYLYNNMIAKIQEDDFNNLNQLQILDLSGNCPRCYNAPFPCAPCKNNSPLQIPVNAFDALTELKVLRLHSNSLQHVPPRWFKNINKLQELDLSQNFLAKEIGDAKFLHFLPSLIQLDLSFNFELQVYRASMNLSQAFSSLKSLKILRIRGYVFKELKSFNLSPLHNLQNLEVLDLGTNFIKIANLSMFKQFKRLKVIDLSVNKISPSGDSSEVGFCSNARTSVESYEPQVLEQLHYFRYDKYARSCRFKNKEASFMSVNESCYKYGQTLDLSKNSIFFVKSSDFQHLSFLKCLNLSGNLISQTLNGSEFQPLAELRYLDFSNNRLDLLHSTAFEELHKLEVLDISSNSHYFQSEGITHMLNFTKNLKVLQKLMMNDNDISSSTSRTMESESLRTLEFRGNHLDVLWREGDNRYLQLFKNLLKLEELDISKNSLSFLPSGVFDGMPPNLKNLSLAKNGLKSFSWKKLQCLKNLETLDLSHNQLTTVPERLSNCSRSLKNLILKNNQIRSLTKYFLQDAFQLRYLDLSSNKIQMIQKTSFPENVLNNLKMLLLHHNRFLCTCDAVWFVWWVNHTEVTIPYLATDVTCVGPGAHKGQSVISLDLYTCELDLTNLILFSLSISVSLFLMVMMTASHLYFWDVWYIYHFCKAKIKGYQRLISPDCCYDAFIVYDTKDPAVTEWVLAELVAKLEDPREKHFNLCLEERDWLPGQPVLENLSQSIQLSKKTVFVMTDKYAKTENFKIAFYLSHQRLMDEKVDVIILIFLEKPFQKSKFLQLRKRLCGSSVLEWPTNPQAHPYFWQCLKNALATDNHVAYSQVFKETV
Briefly: In vitro human TLR7 binding reporter assay (HEK-Blue, NF-kB/AP1-inducible SEAP). Type of test: cell-based. To be noted: read-out: TLR7 Agonist EC50. The method in brief: as §1
For orientation: In a reporter assay the amount or activity of a reporter protein is the signal.

The mark [1] stands for this setting: THP-1, IL-1β production, human, read-out: NLRP3 hILIB EC50.
Setting [2] is: THP-1, IL-1β production, human cells, read-out: NLRP3 hILIB EC50.

Regarding `CCN(Cc1nc2c(N)nc3cc(-c4ccn[nH]4)ccc3c2s1)C(C)=O` [Example 140, N-{[4-amino-7-(1H-pyrazol-3-yl)-[1,3]thiazolo[4,5-c]quinolin-2-yl]methyl}-N-ethylacetamide], the results for the EC50 in the test with THP-1 cells (setting [1]), at TLR8 (activity range class) and at TLR7 (activity range class) were 1.65 µM, more than 100 µM and more than 100 µM, respectively.
For the compound `Nc1nc2cc(-c3cc[nH]n3)ccc2c2nn(CCO)cc12` [Example 396], the EC50 was 0.65 µM in the test with THP-1 cells (setting [2]), more than 100 µM on TLR8 (activity range) and more than 100 µM on TLR7 (activity range).
In the case of `Nc1nc2cc(-c3cc[nH]n3)ccc2c2[nH]c(CNCC(F)F)cc12` [Example 520], the EC50 was 0.09 µM with THP-1 cells (setting [2]), more than 100 µM at TLR8 (activity range) and more than 100 µM at TLR7 (activity range).
Turning to `CC(C)NC(=O)C(C)n1cc2c(N)nc3cc(-c4ccn[nH]4)ccc3c2n1` (stereo not drawn) [Example 569], the EC50 in the test on THP-1 cells (setting [2]) was 0.94 µM; at TLR8 (activity range), more than 100 µM; on TLR7 (activity range), more than 100 µM.
For `Nc1nc2cc(-c3cc[nH]n3)ccc2c2c1cnn2Cc1cn[nH]c1` [Example 359], the EC50 in the test on THP-1 cells (setting [1]) is 1.45 µM; at TLR8 (activity range class), more than 100 µM; at TLR7 (activity range class), more than 100 µM.
Turning to `Cc1cccc(C(=O)NCCn2cc3c(n2)c(N)nc2cc(-c4cc[nH]n4)ccc23)n1` [Example 49], the results for the EC50 in the test with THP-1 cells (setting [1]), at TLR8 (activity range class) and at TLR7 (activity range class) were 0.61 µM, 20 to 100 µM and more than 100 µM, respectively.
For `Cc1cc(Nc2cccc(C(=O)NCCn3cc4c(n3)c(N)nc3cc(-c5cc[nH]n5)ccc34)n2)n(C)n1` [Example 78], the EC50 with THP-1 cells (setting [1]) was 4.71 µM; at TLR8 (activity range class), more than 100 µM; on TLR7 (activity range class), more than 100 µM.
For the compound `NCc1cc2c(N)nc3cc(-c4ccn[nH]4)ccc3c2[nH]1` [Example 438], the EC50 with THP-1 cells (setting [2]) was 0.99 µM; on TLR8 (activity range) it was more than 100 µM; at TLR7 (activity range) it was more than 100 µM.
Regarding `Nc1nc2cc(-c3cc[nH]n3)ccc2c2cn(CCNC(=O)c3ccccn3)nc12` [Example 39], the EC50 in the test on THP-1 cells (setting [1]) was 0.25 µM; on TLR8 (activity range class), 20 to 100 µM; at TLR7 (activity range class), more than 100 µM.
With `Nc1nc2cc(-c3ccn[nH]3)ccc2c2cn(CCF)nc12` [Example 193], the concentration for a half-maximal effect (EC50) was 0.24 µM in the test on THP-1 cells (setting [1]), 20 to 100 µM at TLR8 (activity range class) and 20 to 100 µM on TLR7 (activity range class).
With `CC(C)NC(=O)CCn1cc2c(N)nc3cc(-c4cc[nH]n4)ccc3c2n1` [Example 510], the EC50 in the test with THP-1 cells (setting [2]) was 2.47 µM; on TLR8 (activity range), more than 100 µM; at TLR7 (activity range) it was more than 100 µM.
Consider `Nc1nc2cc(-c3cc[nH]n3)ccc2c2[nH]c(CN3CC(F)(F)C3)cc12` [Example 477], for which the EC50 with THP-1 cells (setting [2]) is 0.27 µM; on TLR8 (activity range) it was more than 100 µM; at TLR7 (activity range), more than 100 µM.
For `Nc1nc2cc(-n3cccn3)ccc2c2nn(CC(F)F)cc12` [Example 390], the concentration for a half-maximal effect (EC50) in the test on THP-1 cells (setting [1]) was 0.35 µM; on TLR8 (activity range class) it was more than 100 µM; at TLR7 (activity range class), more than 100 µM.
Regarding `Cn1cnc(C(=O)NCCn2cc3c(n2)c(N)nc2cc(-c4cc[nH]n4)ccc23)c1` [Example 87], the EC50 in the test with THP-1 cells (setting [1]) was 1.03 µM; at TLR8 (activity range class), more than 100 µM; on TLR7 (activity range class), more than 100 µM.
Consider `COC1CCN(CCn2ncc3c(N)nc4cc(-c5cc[nH]n5)ccc4c32)C1` (stereo not drawn) [Example 434], for which the EC50 was 4.35 µM with THP-1 cells (setting [2]), more than 100 µM on TLR8 (activity range) and more than 100 µM at TLR7 (activity range).
As to `COc1ccc(C(=O)NCCn2cc3c(n2)c(N)nc2cc(-c4cc[nH]n4)ccc23)nc1` [Example 59], the EC50 in the test on THP-1 cells (setting [1]) was 0.47 µM; on TLR8 (activity range class) it was more than 100 µM; on TLR7 (activity range class), more than 100 µM.
`Nc1nc2cc(-c3cc[nH]n3)ccc2c2cn(CCCNC(=O)c3ccccc3)nc12` [Example 123, N-{3-[4-amino-7-(1H-pyrazol-3-yl)-2H-pyrazolo[3,4-c]quinolin-2-yl]propyl}benzamide]: the concentration for a half-maximal effect (EC50) with THP-1 cells (THP-1, read-out: NLRP3 hILIB EC50) is 9.02 µM; on TLR8 (activity range class), more than 100 µM; at TLR7 (activity range class) it was more than 100 µM.
As to `CC(O)Cn1ncc2c(N)nc3cc(-c4cc[nH]n4)ccc3c21` (stereo not drawn) [Example 428], the EC50 was 1.81 µM in the test on THP-1 cells (setting [2]), more than 100 µM on TLR8 (activity range) and more than 100 µM on TLR7 (activity range).
